Legend:
[1] = tested on: carrageenan-induced hyperalgesia; assay: murine carrageenan-induced hyperalgesia model; assay type: in vivo, mice; conditions: PO BID (totaling 60 mg/kg/day)
Protocol: (§1) In both the murine carrageenan-induced paw edema and hyperalgesia models, the top efficacious dose of MGBG is 30 mg/kg PO BID (totaling 60 mg/kg/day). Based upon this dosing paradigm in mice, at least two methods to estimate the equivalent dosing in humans may be used.
(§2) In the murine carrageenan models, we also observed efficacy of MGBG at lower doses, including 3 mg/kg PO BID and 10 mg/kg PO BID, which would proportionally convert to human doses of ˜0.42 mg/kg/day and ˜1.2 mg/kg/day.

beagle dogs = assay: In vivo evaluation of enterically coated capsules: tolerability / clinical observations; conditions: single oral doses 10, 30, 100 mg/kg
Text: A comparative study of single, escalating doses of enterically coated MGBG capsules was undertaken in order to ascertain the feasibility and pharmacologic effect of delaying release of MGBG until the capsule has passed the stomach. […] Six male beagle dogs aged approximately 4 years 8 months to 5 years 6 months and weighing 10.95 to 12.85 kg (Covance Research Products) were weighed, acclimatized, and randomly assigned to treatment groups as shown below in Table 5.
The test article was administered once at each dose level during the study orally via capsule. Duplicate sets of enteric-coated capsules were prepared for each animal at each dose and evaluated for dissolution. The duplicate sample was placed in a 0.1 N HCl solution, and stirred using a magnetic stir bar and stir plate, for at least two hours. Triplicate samples of the acidic dissolution media were collected for analysis of MGBG content. The capsule was transferred to a phosphate buffer solution (pH 6.8), and stirred using a magnetic stir bar and stir plate, for approximately one hour. The capsule was visually inspected for signs of deformation. […]
Observations for morbidity, mortality, injury, and the availability of food and water were conducted twice daily for all animals. […] On occasion, clinical observations were recorded at unscheduled intervals. Body weights were measured and recorded on Days 1-4, 5, 12, and 32.

[2] = tested on: carrageenan-induced paw edema; assay: murine carrageenan-induced paw edema model; assay type: in vivo, mice; conditions: PO BID (totaling 60 mg/kg/day)
Protocol: as §1, §2

[3] = Multi-species allometric scaling to predict human pharmacokinetic parameters; parameters: species or system humans; conditions: predicted human, ORAL, based on Mouse, Dog, Rhesus
Text: Multi-species allometric scaling based on pharmacokinetic parameters was employed to calculate predicted pharmacokinetic parameters in humans according to methods known in the art. See, e.g., Ings R M, “Interspecies scaling and comparisons in drug development and toxicokinetics,” Xenobiotica, 1990 November; 20(11):1201-31 and Khor, S P et al., “Dihydropyrimidine dehydrogenase inactivation and 5-fluorouracil pharmacokinetics: allometric scaling of animal data, pharmacokinetics and toxicodynamics of 5-fluorouracil in humans,” Cancer Chemother Pharmacol (1997) 39(3): 833-38. Expected values are given below in Table 2.

Structure (SMILES): CC(/C=N/NC(=N)N)=N\NC(=N)N [MGBG, 1,1′[methylethanediylidene]dinitrilodiguanidine]
- top efficacious dose [1]: 30 mg/kg
- tolerability / survival (beagle dogs): All dose levels were tolerated with all animals surviving to study termination
- top efficacious dose [2]: 30 mg/kg
- CL/F [3]: 20.9 mL/min/kg
- V/F [3]: 41.6 L/kg
- t1/2 [3]: 23.0 h
- CL/F ([3]; Rat): 21.0 mL/min/kg
- V/F ([3]; Rat): 42.4 L/kg
- t1/2 ([3]; Rat): 23.3 h

From patent publication US9668988B2, “Controlled release oral pharmaceutical dosage forms comprising MGBG” (Pathologica LLC, priority 2011, dated 2017)
